Columns and labels:
[1] = molecular target: T1, RINT1 RAD50-interacting protein 1 (Homo sapiens, UniProt Q6NUQ1); assay: competitive isoTOP-ABPP; format: binding
T1 construct: isoTOP-ABPP experiments performed in cell lysates (in vitro); endogenous in cells; host or cells: soluble proteome of human cancer cell lines (MDA-MB-231; Ramos and Jurkat also prepared)
Summary of the method: (§1)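 Here, isoTOP-ABPP measures loss of STP-alkyne labeling at individual lysines after fragment exposure in lysate. Activated esters are dosed at 50 μM, guanidinylating agents at 100 μM; the probe follows at 0.1 mM for 1 h. R ≥4 marks a liganded lysine.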

[2] = molecular target: T2, SIN3A Paired amphipathic helix protein Sin3a (Homo sapiens, UniProt Q96ST3); assay: competitive isoTOP-ABPP; format: binding; details: possible other lysine Q96ST3_K152
T2 construct: isoTOP-ABPP experiments performed in cell lysates (in vitro); endogenous in cells; host or cells: soluble proteome of human cancer cell lines (MDA-MB-231; Ramos and Jurkat also prepared)
T2 sequence (Q96ST3 1-1273): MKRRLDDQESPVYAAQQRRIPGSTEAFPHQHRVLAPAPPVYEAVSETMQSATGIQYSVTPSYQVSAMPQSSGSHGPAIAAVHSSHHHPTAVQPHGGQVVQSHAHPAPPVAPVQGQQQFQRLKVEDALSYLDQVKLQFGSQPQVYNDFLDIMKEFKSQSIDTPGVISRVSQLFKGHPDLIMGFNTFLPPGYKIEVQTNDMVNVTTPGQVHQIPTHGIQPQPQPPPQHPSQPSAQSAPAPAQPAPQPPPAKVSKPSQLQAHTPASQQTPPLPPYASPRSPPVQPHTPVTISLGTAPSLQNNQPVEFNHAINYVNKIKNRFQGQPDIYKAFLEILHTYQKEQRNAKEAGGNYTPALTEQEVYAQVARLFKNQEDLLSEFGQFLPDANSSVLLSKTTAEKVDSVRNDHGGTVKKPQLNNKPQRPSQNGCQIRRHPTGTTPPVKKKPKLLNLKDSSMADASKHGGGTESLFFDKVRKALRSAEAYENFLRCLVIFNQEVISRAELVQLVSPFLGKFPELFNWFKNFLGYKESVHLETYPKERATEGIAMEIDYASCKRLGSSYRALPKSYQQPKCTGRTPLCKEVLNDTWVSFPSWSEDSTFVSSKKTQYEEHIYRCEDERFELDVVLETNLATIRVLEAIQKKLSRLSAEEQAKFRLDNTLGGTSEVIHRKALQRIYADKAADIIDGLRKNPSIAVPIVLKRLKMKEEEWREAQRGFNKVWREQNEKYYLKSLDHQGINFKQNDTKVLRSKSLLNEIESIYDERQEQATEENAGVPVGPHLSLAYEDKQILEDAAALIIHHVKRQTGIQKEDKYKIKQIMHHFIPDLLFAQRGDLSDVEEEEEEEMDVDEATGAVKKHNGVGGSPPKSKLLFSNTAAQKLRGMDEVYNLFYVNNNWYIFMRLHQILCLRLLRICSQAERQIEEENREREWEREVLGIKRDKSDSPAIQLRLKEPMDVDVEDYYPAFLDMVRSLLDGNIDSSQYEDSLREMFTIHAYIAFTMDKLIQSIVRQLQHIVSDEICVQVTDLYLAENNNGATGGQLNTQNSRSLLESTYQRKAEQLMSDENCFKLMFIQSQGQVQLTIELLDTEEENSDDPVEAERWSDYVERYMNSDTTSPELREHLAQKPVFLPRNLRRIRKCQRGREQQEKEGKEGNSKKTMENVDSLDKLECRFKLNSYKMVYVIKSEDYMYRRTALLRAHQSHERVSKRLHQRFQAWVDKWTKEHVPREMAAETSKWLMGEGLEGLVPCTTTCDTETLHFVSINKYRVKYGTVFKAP
Summary of the method: as §1

T1 sequence (Q6NUQ1 whole entry): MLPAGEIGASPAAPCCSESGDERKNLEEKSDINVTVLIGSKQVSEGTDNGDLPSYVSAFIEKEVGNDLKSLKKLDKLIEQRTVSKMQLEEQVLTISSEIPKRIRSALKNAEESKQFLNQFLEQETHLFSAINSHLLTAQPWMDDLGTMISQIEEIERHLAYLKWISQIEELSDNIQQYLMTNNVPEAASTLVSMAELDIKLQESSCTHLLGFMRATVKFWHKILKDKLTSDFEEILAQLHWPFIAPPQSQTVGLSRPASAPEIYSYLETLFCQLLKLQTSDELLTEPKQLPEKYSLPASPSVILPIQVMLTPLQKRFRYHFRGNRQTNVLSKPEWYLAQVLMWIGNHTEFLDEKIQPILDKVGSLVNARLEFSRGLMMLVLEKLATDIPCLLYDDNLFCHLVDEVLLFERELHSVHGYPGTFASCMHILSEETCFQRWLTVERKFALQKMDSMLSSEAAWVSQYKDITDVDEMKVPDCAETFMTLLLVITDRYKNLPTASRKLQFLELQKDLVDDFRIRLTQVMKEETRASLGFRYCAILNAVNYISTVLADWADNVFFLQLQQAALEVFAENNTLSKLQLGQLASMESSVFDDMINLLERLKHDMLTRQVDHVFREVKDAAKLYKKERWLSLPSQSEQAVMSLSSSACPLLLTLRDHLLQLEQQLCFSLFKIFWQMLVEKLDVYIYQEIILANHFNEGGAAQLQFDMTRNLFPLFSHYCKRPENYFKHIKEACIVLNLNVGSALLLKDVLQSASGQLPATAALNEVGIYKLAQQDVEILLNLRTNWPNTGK

| Compound | isoTOP-ABPP ratio, lysine Q6NUQ1_K771 ([1]; 50 uM_231_sol_in vitro) | isoTOP-ABPP ratio, lysine Q96ST3_K155 ([2]; 50 uM_231_sol_in vitro) | isoTOP-ABPP ratio, lysine Q6NUQ1_K771 ([1]; 100 uM_231_sol_in vitro) | isoTOP-ABPP ratio, lysine Q96ST3_K155 ([2]; 100 uM_231_sol_in vitro) |
| --- | --- | --- | --- | --- |
| O=C(CCc1ccc2c(c1)OCO2)Oc1ccc([N+](=O)[O-])cc1[N+](=O)[O-] [fragment 45, 2,4-Dinitrophenyl 3-(benzo[d][1,3]dioxol-5-yl)propanoate] | 1.0 | 1.5 |  |  |
| O=C(ON1C(=O)CCC1=O)c1cc(C(F)(F)F)cc(C(F)(F)F)c1 [fragment 46, 3,5-Bis(trifluoromethyl)benzoic acid NHS ester] | 20.0 | 4.4 |  |  |
| O=C(Oc1c(F)c(F)c(C(F)(F)F)c(F)c1F)c1cc(C(F)(F)F)cc(C(F)(F)F)c1 [fragment 47, 2,3,5,6-Tetrafluoro-4-(trifluoromethyl)phenyl 3,5-bis(trifluoromethyl)benzoate] | 1.2 | 1.8 |  |  |
| O=C(Oc1c(F)c(F)cc(F)c1F)c1cc(C(F)(F)F)cc(C(F)(F)F)c1 [fragment 48, 2,3,5,6-Tetrafluorophenyl 3,5-bis(trifluoromethyl)benzoate] | 4.8 | 20.0 |  |  |
| CC(C)(C)OC(=O)N=C(NC(=O)OC(C)(C)C)n1cccn1 [fragment 50, reference compound] |  |  | 1.1 | 3.5 |
| NC(=O)c1cc(C(F)(F)F)cc(C(F)(F)F)c1 [fragment 51, reference compound] | 0.9 | 1.1 |  |  |

Reference: US20210255193A1, “LYSINE REACTIVE PROBES AND USES THEREOF” (The Scripps Research Institute, priority 2017, published 2021)
